As a reminder, the IC50 is the concentration needed to halve the response being measured. The term Kd denotes the concentration at which binding is half-saturated. Broadly, the ΔTm is the shift of the melting midpoint relative to a reference.

This is an account of results in ChEMBL document CHEMBL3817841, “Biological evaluation of quinoline derivatives as inhibitors of human dihydroorotate dehydrogenase” (Medchemcomm, 2016).

In assay [1] the target is T1, Dihydroorotate dehydrogenase (quinone), mitochondrial (Homo sapiens, UniProt Q02127). Description: Inhibition of N-terminally truncated human DHODH (Met30 to Arg396 residues) expressed in Escherichia coli BL21 (DE3) using dihydroorotate as substrate preincubated for 5 mins followed by substrate addition measured every 30 secs for 6 mins by DCIP-based spectrophotometric assay.

In assay [2] the target is T1, Dihydroorotate dehydrogenase (quinone), mitochondrial. Description: Binding affinity to N-terminally truncated human DHODH (Met30 to Arg396 residues) expressed in Escherichia coli BL21 (DE3) by surface plasmon resonance assay. Background: Surface plasmon resonance follows binding to a sensor surface in real time, without labels.
The target is the same in assay [3].
Description: Binding affinity to N-terminally truncated human DHODH (Met30 to Arg396 residues) expressed in Escherichia coli BL21 (DE3) assessed as association rate constant by surface plasmon resonance assay
Assay [4] shares this target. Description: Binding affinity to N-terminally truncated human DHODH (Met30 to Arg396 residues) expressed in Escherichia coli BL21 (DE3) assessed as dissociation rate constant by surface plasmon resonance assay.
Assay [5] has the same target. This is another data set of the same source.
Description: Binding affinity to N-terminally truncated human DHODH (Met30 to Arg396 residues) expressed in Escherichia coli BL21 (DE3) assessed as change in melting temperature at 100 uM by fluorescence-based thermal shift assay

T1 sequence (Q02127 whole entry, the tested form may be a part): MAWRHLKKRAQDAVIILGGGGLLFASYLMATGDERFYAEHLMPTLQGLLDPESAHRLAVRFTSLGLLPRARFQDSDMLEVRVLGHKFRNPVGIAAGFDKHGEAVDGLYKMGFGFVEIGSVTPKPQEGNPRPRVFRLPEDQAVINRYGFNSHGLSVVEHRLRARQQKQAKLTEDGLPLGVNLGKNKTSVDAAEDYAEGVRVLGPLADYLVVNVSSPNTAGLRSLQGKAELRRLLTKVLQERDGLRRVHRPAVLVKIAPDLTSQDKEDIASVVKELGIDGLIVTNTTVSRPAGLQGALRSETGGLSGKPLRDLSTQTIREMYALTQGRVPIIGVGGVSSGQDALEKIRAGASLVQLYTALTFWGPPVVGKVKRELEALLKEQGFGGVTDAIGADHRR

Take `CC(C)c1ccc(-c2cc(C(=O)O)c3cc(Br)ccc3n2)cc1`: in assay [1], the IC50 was 136 nM.
As to `O=C(O)c1cc(-c2ccc(Cl)cc2Cl)nc2ccc(Br)cc12`, half-maximal inhibition in assay [1] (IC50) required 666 nM. This IC50 is about 4.9-fold higher than that of the molecule before.
Molecule `O=C(O)c1cc(-c2ccc(Cl)c(Cl)c2)nc2ccc(Br)cc12` returned an IC50 in assay [1] of 57.1 nM.
On the same count and under the same terms, the value for `COC(=O)c1cc(-c2ccc(OC)c(OC)c2)nc2ccccc12` was 3250 nM.
The molecule `CCC(C)c1ccc(-c2nc3ccc(Br)cc3c(C(=O)O)c2C)cc1` (stereo not drawn) showed a Kd in assay [2] of 12 nM. In assay [1], the IC50 worked out at 9.7 nM. Further, in assay [3], the Ka is 5.99 ×10⁵ /M/s. Besides, the koff in assay [4] worked out at 7.58 ×10⁻³ /s. The ΔTm in assay [5] is 16.6 °C.
As for `CCCCc1ccc(-c2cc(C(=O)O)c3ccccc3n2)cc1`, half-maximal inhibition in assay [1] (IC50) was put at 437 nM.
Same read-out and setting: the result for `Cc1c(-c2ccc(C(C)C)cc2)nc2ccccc2c1C(=O)O` reads 1570 nM; that for `O=C(O)c1cc(-c2ccc3c(c2)OCO3)nc2ccccc12`, 5180 nM.
With `CCCCOc1cccc(-c2cc(C(=O)O)c3ccccc3n2)c1`, the IC50 in assay [1] was 1310 nM.
